Results: patent US11162083B2, “Peptide based inhibitors of Raf kinase protein dimerization and kinase activity” (UNIVERSITY OF SOUTH CAROLINA, priority 2018, dated 2021)

Experiments:
dimer interface of B-Raf = dimer interface of B-Raf (Homo sapiens, UniProt P15056); assay: Dissociation constant (Kd) determination from intrinsic Trp fluorescence (ITF) measurements; type: binding; conditions: for Kd, binding affinity to the dimer forming interface of B-Raf (FIG. 1): no unit printed in this block
Description: The dissociation constant is an indicator of binding strength between two molecules. For the reaction: P+L↔PL Kd is expressed by Equation 1: Kd=[P][L]/[PL] Eq. 1 where [P] is the concentration of free Protein, [L] is the concentration of free Ligand, and [PL] is the Ligand-bound-Protein.
Fluorescence intensity was measured with a Hitachi F-2500 fluorescence spectrophotometer. A 1.6 mL of protein solution (0.5 μM) was placed in a cuvette and equilibrated at 15° C. for 1 hour. After equilibration, small increments (2-15 μL) of the ligand solution were injected in the cuvette. The experiments were performed in 20 mM Hepes buffer (pH 7.5), 10 mM MgCl2, 30 mM NaCl. […] The slits were set at 10 and 10 nm in the excitation and emission respectively. To determine dilution effect of B-Raf (due to ligand addition) and any fluorescence effect by unbound ligand, a blank sample containing Trp with the same fluorescence signal, was titrated with ligand additions as described above. The sample absorbance was kept below 0.1 to minimize the inner filter effect.
Dissociation constant of B-Raf/Ligand was calculated by fitting data in Eq. 2.
Data were analyzed using Origin 7, using the one site bind function for nonlinear fit.

B-Raf = B-Raf (Homo sapiens, UniProt P15056); type: binding
Sequence of B-Raf (P15056 whole entry): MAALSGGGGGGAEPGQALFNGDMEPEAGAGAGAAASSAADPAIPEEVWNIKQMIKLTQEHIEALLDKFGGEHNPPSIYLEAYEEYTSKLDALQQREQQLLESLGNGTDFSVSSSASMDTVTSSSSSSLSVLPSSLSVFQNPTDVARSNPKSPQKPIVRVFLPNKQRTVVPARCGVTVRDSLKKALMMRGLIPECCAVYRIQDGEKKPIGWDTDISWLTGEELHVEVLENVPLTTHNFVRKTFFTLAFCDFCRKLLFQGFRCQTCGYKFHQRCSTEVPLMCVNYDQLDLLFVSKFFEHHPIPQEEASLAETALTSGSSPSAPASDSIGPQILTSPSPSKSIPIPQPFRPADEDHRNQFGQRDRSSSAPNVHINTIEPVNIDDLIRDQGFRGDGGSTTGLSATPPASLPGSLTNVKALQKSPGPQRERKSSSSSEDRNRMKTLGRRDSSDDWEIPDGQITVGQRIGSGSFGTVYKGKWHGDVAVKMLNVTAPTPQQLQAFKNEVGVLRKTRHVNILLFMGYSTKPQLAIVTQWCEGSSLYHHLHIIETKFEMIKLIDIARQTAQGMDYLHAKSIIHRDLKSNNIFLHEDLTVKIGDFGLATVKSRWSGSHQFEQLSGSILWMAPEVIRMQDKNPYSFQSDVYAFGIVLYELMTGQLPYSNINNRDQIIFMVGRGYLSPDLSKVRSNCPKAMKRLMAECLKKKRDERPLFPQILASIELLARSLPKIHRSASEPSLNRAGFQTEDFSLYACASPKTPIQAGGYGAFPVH
Excerpt: An isothermal titration calorimeter composed of two identical cells surrounded by an adiabatic jacket was used to perform ITC measurements. The thermopile/thermocouple circuits were used to detect temperature differences between a reference cell (filled with buffer or water) and a sample cell containing the macromolecule. During an experiment, ligand is titrated into the sample cell in precisely known aliquots, causing heat to be either taken up or evolved (depending on the nature of the reaction). Measurements consist of the time-dependent input of power required to maintain equal temperatures between the sample and reference cells. In an exothermic reaction, the temperature in the sample cell increases upon addition of ligand. This causes the feedback power to the sample cell to be decreased (remember: a reference power is applied to the reference cell) in order to maintain an equal temperature between the two cells. In an endothermic reaction, the opposite occurs; the feedback circuit increases the power in order to maintain a constant temperature (isothermic/isothermal operation). […] The pattern of these heat effects as a function of the molar ratio [ligand]/[macromolecule] can then be analyzed to give the thermodynamic parameters of the interaction under study.

[1] = tested on: NRASQ61K-mutant SBC12 melanoma cells; assay: Western blotting of MEK/ERK signaling in melanoma cells; conditions: peptide added to SBC12 cells; 1 μM PLX4032 or DMSO; Western blot
Description: Following recovery at 37° C. for 30 minutes, the cells were treated with 1 μM PLX4032 for 1 hour or DMSO as a vehicle control. Subsequently, the cells were harvested, lysed using RIPA buffer and analyzed by Western blotting using the indicated antibodies. […] Four hours prior to harvest, the cells were treated with 1 μM vemurafenib (PLX4032), or the same volume of DMSO as vehicle control. RIPA buffer lysates were subjected to Western blotting using the indicated antibodies. Detection of HSP90 serves as a representative loading control.
Following recovery at 37° C. for 30 minutes, cells were treated with 1 μM PLX4032 for 1 hour or DMSO as a vehicle control. Subsequently, the cells were harvested, lysed using RIPA buffer, and analyzed by Western blotting using the indicated antibodies.

Sequence of dimer interface of B-Raf (P15056 whole entry): as above

Compound `CC[C@H](C)[C@H](NC(=O)[C@H](CC(N)=O)NC(=O)[C@@H](NC(=O)[C@H](Cc1cnc[nH]1)NC(=O)[C@H](CCCNC(=N)N)NC(=O)[C@@H](NC(=O)[C@H](CCCCN)NC(=O)[C@H](CC(C)C)NC(=O)[C@H](CC(C)C)NC(=O)[C@@H](NC(=O)CN)C(C)C)[C@@H](C)O)C(C)C)C(=O)N[C@@H](CC(C)C)C(=O)N[C@@H](CC(C)C)C(=O)N[C@@H](Cc1ccccc1)C(=O)N[C@@H](CCSC)C(=O)NCC(=O)N[C@@H](Cc1ccc(O)cc1)C(=O)N[C@@H](CO)C(=O)N[C@H](C(=O)O)[C@@H](C)O` [SEQ ID NO: 6] has a Kd (dimer interface of B-Raf) of roughly 540 nM.

In the case of GVLRKTHHVNILGFWGYST [SEQ ID NO: 2], the “Kd, binding affinity to the dimer forming interface of B-Raf (FIG. 1)” value (from here on “Kd, binding affinity”) (dimer interface of B-Raf) is reported as “no measurable binding”.

For `CC[C@H](C)[C@H](NC(=O)[C@H](CC(N)=O)NC(=O)[C@@H](NC(=O)[C@H](Cc1c[nH]cn1)NC(=O)[C@H](CCCNC(=N)N)NC(=O)[C@H](C)NC(=O)[C@H](CCCCN)NC(=O)[C@H](CCCNC(=N)N)NC(=O)[C@H](CC(C)C)NC(=O)[C@@H](NC(=O)CN)C(C)C)C(C)C)C(=O)N[C@@H](CC(C)C)C(=O)N[C@@H](CC(C)C)C(=O)N[C@@H](Cc1ccccc1)C(=O)N[C@@H](CCSC)C(=O)NCC(=O)N[C@@H](Cc1ccc(O)cc1)C(=O)N[C@@H](CO)C(=O)N[C@H](C(=O)O)[C@@H](C)O` [SEQ ID NO: 8], the “ΔH of binding (ITC)” value (B-Raf) was -8.32 kcal/mol and the “ΔS of binding (ITC)” value (B-Raf) was −28.4 J/mol·K.

GVLRKTRFVNILLFMGYST [SEQ ID NO: 9] was tested, and the “Kd, binding affinity” value (dimer interface of B-Raf) was “no measurable binding”.

`CC[C@H](C)[C@H](NC(=O)[C@H](CC(N)=O)NC(=O)[C@@H](NC(=O)[C@H](Cc1cnc[nH]1)NC(=O)[C@H](CCCNC(=N)N)NC(=O)[C@@H](NC(=O)[C@H](CCCCN)NC(=O)[C@H](CCCNC(=N)N)NC(=O)[C@H](CC(C)C)NC(=O)[C@@H](NC(=O)CN)C(C)C)[C@@H](C)O)C(C)C)C(=O)N[C@@H](CC(C)C)C(=O)N[C@@H](CC(C)C)C(=O)N[C@@H](Cc1ccccc1)C(=O)N[C@@H](CCSC)C(=O)NCC(=O)N[C@@H](Cc1ccc(O)cc1)C(=O)N[C@@H](CO)C(=O)N[C@H](C(=O)O)[C@@H](C)O` [SEQ ID NO: 1] showed a Kd (dimer interface of B-Raf) of roughly 3840 nM.

For `CC[C@H](C)[C@H](NC(=O)[C@H](CC(N)=O)NC(=O)[C@@H](NC(=O)[C@H](Cc1c[nH]cn1)NC(=O)[C@H](CCCNC(=N)N)NC(=O)[C@@H](NC(=O)[C@H](CCCCN)NC(=O)[C@H](CCCNC(=N)N)NC(=O)[C@H](CC(C)C)NC(=O)[C@@H](N)C(C)C)[C@@H](C)O)C(C)C)C(=O)N[C@@H](CC(C)C)C(=O)N[C@@H](CC(C)C)C(=O)N[C@@H](Cc1ccccc1)C(=O)N[C@@H](CCSC)C(=O)NCC(=O)O` [SEQ ID NO: 17], the “downstream signaling of MEK and ERK (pMEK, pERK)” value [1] was “reduce downstream signaling of MEK and ERK”.

In the case of GVLRKTRHVNILLDMGYST [SEQ ID NO: 14], the “Kd, binding affinity” value (dimer interface of B-Raf) is reported as “no measurable binding”.
